# Values joined by “and” are separate entries in the source; they are usually repeats but may differ in a detail not shown here. Equal values may be shown once. Numbers after ± are expanded uncertainties.
# Settings: Liquid, Ebulliometric method (Recirculating still)
vapor or sublimation pressure (355.7 K),vapor or sublimation pressure (373.1 K),SMILES
101.3 ± 1.4 kPa and 101.32 ± 10 kPa,,CC(C)O [propan-2-ol]
,101.3 ± 1.4 kPa,O [water]
